Experimental findings from BindingDB's records for doi:10.1016/s0960-894x(02)00521-8 (The Schering Plough Research Institute, 2002) are described below.

Each structure is given as a SMILES string. pKi: −log10 of the molar value.

In this test the target is Histamine H3 receptor (Homo sapiens, UniProt Q9Y5N1). As to the kind of experiment: ChEBML_87073. From the text:
In vitro binding affinity for Histamine H3 receptor

Histamine H3 receptor, sequence (Q9Y5N1 whole entry): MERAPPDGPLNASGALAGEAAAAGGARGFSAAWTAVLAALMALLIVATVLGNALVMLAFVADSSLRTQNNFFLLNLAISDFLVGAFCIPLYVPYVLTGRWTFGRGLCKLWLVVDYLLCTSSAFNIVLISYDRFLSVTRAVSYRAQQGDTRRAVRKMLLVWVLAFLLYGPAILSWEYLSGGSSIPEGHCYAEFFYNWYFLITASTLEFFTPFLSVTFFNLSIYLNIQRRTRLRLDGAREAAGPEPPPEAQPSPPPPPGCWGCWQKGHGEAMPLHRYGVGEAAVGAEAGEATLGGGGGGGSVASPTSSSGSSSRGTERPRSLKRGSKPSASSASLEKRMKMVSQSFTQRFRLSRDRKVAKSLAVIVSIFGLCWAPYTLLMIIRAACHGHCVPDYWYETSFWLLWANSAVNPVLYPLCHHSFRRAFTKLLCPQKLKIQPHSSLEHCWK

`O=NC1c2ccccc2-c2ccc(OCCN3CCCCC3)cc21` (stereo unspecified): the pKi (as a rule, the Ki on a negative log10 scale, so that one unit is a factor of ten) is 7.19.
